From PubChem BioAssay (NCI)
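1) Cells in 96-well plates. 2) Compound, 48 h, 5 concentrations. 3) Linear interpolation between surrounding doses. 4) Unreached endpoint = highest concentration. The concentration for full growth arrest is given as TGI.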

How the values were obtained:
Test in all cases: DTP human tumour cell line panel, 48 h
[1] = system: COLO 205 colon
[2] = system: MDA-MB-231 breast
[3] = system: TK-10 renal
[4] = system: SF-295 CNS
[5] = system: T-47D breast
[6] = system: RXF 393 renal
[7] = system: UO-31 renal
[8] = system: U251 CNS
[9] = system: SN12C renal
[10] = system: MCF7 breast
[11] = system: PC-3 prostate
[12] = system: NCI-H23 lung
[13] = system: MDA-N
[14] = system: M14 melanoma

Row | SMILES | TGI [1] [µM] | TGI [2] [µM] | TGI [3] [µM] | TGI [4] [µM] | TGI [5] [µM] | TGI [6] [µM] | TGI [7] [µM] | TGI [8] [µM] | TGI [9] [µM] | TGI [10] [µM] | TGI [11] [µM] | TGI [12] [µM] | TGI [13] [µM] | TGI [14] [µM]
1 | O=c1c2c3c(sc2nc2n1N=C(c1ccc(Cl)cc1)CS2)CCCC3 | > 100 | > 100 | > 100 | > 100 | > 100 | > 100 | > 100 | > 100 | > 100 | > 100 | > 100 | > 100 | > 100 | 
2 | COC(OC)C1OCC(n2cc(F)c(=O)[nH]c2=O)C1O (stereo unspecified) | > 100 | > 100 | > 100 | > 100 | > 100 | > 100 | > 100 | > 100 | > 100 | > 100 | > 100 | > 100 | > 100 | > 100
3 | O=C1c2ccccc2C(=O)c2sc(Nc3ccccc3C(F)(F)F)nc21 | 27.8 | 16.1 | 35.7 | 32.2 | 44.5 | 39 | 25.2 | 22.4 | > 100 | 45.9 | 26.1 | 42.8 | 30.8 | 50.7
4 | CC(=O)OCc1cncn1S(=O)(=O)c1ccc(C)cc1 | > 100 | > 100 | > 100 | > 100 | > 100 | > 100 | > 100 | > 100 | > 100 | > 100 | > 100 | > 100 | 45.6 | > 100
5 | O=[N+]([O-])c1ccc(N/N=C/CC(O)(C(F)(F)F)C(F)(F)F)c([N+](=O)[O-])c1 | > 10 | > 10 | > 10 | > 10 | > 10 | > 10 | > 10 | > 10 | > 10 | > 10 | > 10 | > 10 | > 10 | > 10
6 | COC(=O)C1=C(OC(=O)/C=C/c2ccccc2)C(C(=O)OC)[C@@]2(O)[C@@H](C(=O)OC)[C@H](C)C[C@@H]1[C@@H]2C(=O)OC (stereo partly specified) | 74.8 | 43.9 | > 100 | 79.9 | 84.4 | 34.1 | > 100 | 45.6 | 41.7 | 91.4 | > 100 | 48.8 | > 100 | > 100
7 | O=[N+]([O-])c1ccc(C(Nc2ccccc2)P(c2ccccc2)c2ccccc2)cc1 (stereo unspecified) | > 100 | > 100 | > 100 | > 100 | > 100 | > 100 | > 100 | > 100 | > 100 | > 100 | > 100 | > 100 | > 100 | > 100
8 | CC1=NN(C(=O)CC(=O)Nc2ccccc2Cl)C(=O)C1N=Nc1ccc(S(=O)(=O)c2ccc(N=NC3C(=O)N(C(=O)CC(=O)Nc4ccccc4Cl)N=C3C)cc2)cc1 (stereo unspecified) | > 100 | > 100 | > 100 | > 100 | > 100 | > 100 | > 100 | > 100 | > 100 | > 100 | > 100 | > 100 | > 100 | > 100
9 | CCCC(O)c1cn(C(NC(=O)c2ccccc2)P(=O)(OCC)OCC)nn1 (stereo unspecified) | > 100 | > 100 | > 100 | > 100 | > 100 | > 100 | > 100 | > 100 | > 100 | > 100 | > 100 | > 100 | > 100 | > 100
10 | C(=N\Nc1ccc(-c2nc3ccccc3[nH]2)cc1)/c1c(-c2ccc(Cc3ccccc3)cc2)[nH]c2ccccc12 | 19.8 | 60.6 | > 95.4 | 27.9 | 98.4 | 14.5 | 49.2 | > 51.2 | > 100 | > 48.8 | 39.2 | 59.5 | > 24.5 | > 54.4
11 | Oc1ccc(Cl)cc1-c1cc(-c2ccccc2)nc(NCN2CCCCC2)n1 | > 100 | > 100 | > 100 |  | > 100 | > 100 | > 100 | > 100 | > 100 | > 100 | > 100 | > 100 | > 100 | > 100
12 | CSc1c(C#N)c(N)nc2c(N=Nc3ccc(Br)cc3)c(N)nn12 | 25.1 | 15.9 | 29.7 | 25.3 | 4.74 | 21 | 28.6 | 16.8 | 13.4 | 8.63 | 23.5 | 14.4 | 18.8 | 24.6
